The source of these data is patent US20250134095A1, “COMPOSITIONS FOR ORGAN AND TISSUE PRESERVATION” (Albert Einstein College of Medicine, priority 2021, published 2025).

“Also recorded” adds a separate entry of the source. Peptide text beside a SMILES is read from it. * marks the point of attachment. Cbz = O=C(OCc1ccccc1)*; CH2F = FC*

In one assay the test system is human organ culture. Description: Cell death in human organ culture model (kidney). The method, then: (§1) Methods: TUNEL Staining and Quantification. Frozen kidney sections were fixed with 4% paraformaldehyde and stained according to standard protocols for the In Situ Cell Death Detection Kit, TMR red (Millipore Sigma). The number of DAPI positive and TUNEL positive cells were quantified using cell counter macros in ImageJ across mouse, pig, and human samples.
To better appreciate how kidneys respond to cold ischemia, a series of […] kidneys was biopsied at times from 12 to 72 hours of cold storage. To decreased observed cell death, a Bax inhibitor (BAI1) was tested in a human organ culture model.
To assess the extent of cell death during cold preservation, a series of eleven human kidneys were repeatedly biopsied at times from 12 to 72 hours of cold storage. […] Cell death increased over time and became apparent in marginal donors between 30-36 hours of cold storage. Human kidneys with the cell death phenotype were also shown to have distinct upregulation of metabolites (e.g. xylose, isothreonic acid, 3-hydroxy-3-methylglutaric acid, conduritol-beta-epoxide, hippuric acid, pseudo uridine, hydroxyproline dipeptide, 4-hydroxyhippuric acid) as compared to the younger, healthier cohort of organs.

A further assay relates to pig kidneys. As to the kind of experiment: TUNEL staining for cell death in cold stored pig kidneys. Conditions: flushed and stored at 4° C. in University of Wisconsin solution with 10 μg/mL, 72 hours.
Excerpt: as §1
(§2) Murine and Porcine Kidney Recoveries. Mouse and pig kidneys were recovered using standard organ recovery protocols. Prior to flushing the abdominal cavity with preservation solution, mice and pigs were given heparin to help increase flow and prevent clotting within the system.
(§3) Mice were flushed with BAI supplemented University of Wisconsin solution (2 mg/kg total mouse weight) at time of organ recovery. Mouse kidneys were stored in the same concentration of BAI1 supplemented preservation solution that was used to flush the mice at time of organ harvest. Pig kidneys were flushed with 500 mL of University of Wisconsin solution supplemented with BAI1 at 10 μg/mL. They were then stored at 4° C. in 500 mL of University of Wisconsin solution supplemented with BAI1 at 10 μg/mL for 72 hours.

For a further assay, the system named is mouse kidneys. Description: TUNEL staining for cell death in cold stored mouse kidneys. Conditions: 2 mg/kg total mouse weight in University of Wisconsin cold preservation solution, flush at organ recovery and storage, 72 hours cold storage.
Excerpt: as §1, §2
Bax KO or Wildtype mice (3× per group) were euthanized and then organs recovered following standard organ transplant procedures. […] At the proscribed time points, kidneys were snap frozen for subsequent cell death assessment by fluorescent TUNEL staining of frozen sections collected on an EVOS2 scope. Quantification of TUNEL staining was performed with custom matlab code following standard image analysis procedures.
as §3

As to `OC(CN1CCNCC1)Cn1c2ccc(Br)cc2c2cc(Br)ccc21` (stereo not shown) [BAI1], in the assay with human organ culture (after a period of warm injury), the “cell death in human organ culture after a period of warm injury” value is on record as “significantly decreased cell death”. Besides, the “cell death in human organ culture during cold storage” value in the assay on human organ culture (during cold storage) is “significantly decreased cell death”. In addition, the “cell death during prolonged cold storage (TUNEL staining)” value in the assay with pig kidneys was “prevents cell death”; with mouse kidneys it was “prevents cell death; also recorded: abrogates cell death”. With `COC(=O)C[C@H](NC(=O)[C@H](C)NC(=O)[C@@H](NC(=O)OCc1ccccc1)C(C)C)C(=O)CF` [Z-VAD-FMK] (Cbz-Val-Ala-Asp(OMe)-CH2F), the “cell death during prolonged cold storage (TUNEL staining)” value in the assay on mouse kidneys is given as “did not appear to reduce the amount of cell death”.

On to `CCOC(=O)c1ccc(NC2CCCCC2)c(N)c1` [ferrostatin-1], for which the “cell death during prolonged cold storage (TUNEL staining)” value in the assay on mouse kidneys is listed as “did not appear to reduce the amount of cell death”.

As to `CN1C(=O)C(Cc2c[nH]c3ccccc23)NC1=S` (stereo not shown) [necrostatin-1], the “cell death during prolonged cold storage (TUNEL staining)” value with mouse kidneys is given as “did not appear to reduce the amount of cell death”.
